Four molecules from US6175013A, “Imidazolinyl tachykinin receptor antagonists” (Eli Lilly and Company, priority 1994, dated 2001) can be followed below.

Assay [1] deals with T1, NK-1 receptor (Homo sapiens, UniProt P25103).
T1 construct: an aliquot of IM9 cells; endogenous in cells; host or cells: IM9 cells
Nature of the assay: NK-1 Receptor Binding Assay (125I-substance P, IM9 cells). The note with it: 20 pM 125I-labeled substance P, 45 minutes at 4° C., may be average of more than one experiment, read-out: IC50, inhibition of binding of substance P. Here is the method:
(§1) The biological activity of the compounds of the present invention was evaluated employing an initial screening assay which rapidly and accurately measured the binding of the tested compound to known NK-1 and NK-2 receptor sites. Assays useful for evaluating tachykinin receptor antagonists are well known in the art. See, e.g., J. Jukic, et al., Life Sciences, 49:1463-1469 (1991); N. Kucharczyk, et al., Journal of Medicinal Chemistry, 36:1654-1661 (1993); N. Rouissi, et al., Biochemical and Bioohysical Research Communications, 176:894-901 (1991).
NK-1 Receptor Binding Assay
Radioreceptor binding assays were performed using a derivative of a previously published protocol. D. G. Payan, et al., Journal of Immunology, 133:3260-3265 (1984). In this assay an aliquot of IM9 cells (1×10^6 cells/tube in […] medium supplemented with 10% fetal calf serum) was incubated with 20 pM ^125 I-labeled substance P in the presence of increasing competitor concentrations for 45 minutes at 4° C.
The IM9 cell line is a well-characterized cell line which is readily available to the public. See, e.g., Annals of the New York Academy of Science, 190: 221-234 (1972); Nature (London), 251:443-444 (1974); Proceedings of the National Academy of Sciences (USA), 71:84-88 (1974). These cells were routinely cultured in RPMI 1640 supplemented with 50 gg/ml gentamicin sulfate and 10% fetal calf serum.
The reaction was terminated by filtration through a glass fiber filter harvesting system using filters previously soaked for 20 minutes in 0.1% polyethylenimine. Specific binding of labeled substance P was determined in the presence of 20 nM unlabeled ligand.
Column 1 provides the example number of the test antagonist compound. The second column depicts the results of the competition assays, detailing the concentration of the test compound (in micromolar quantities) which inhibits fifty percent of the binding of substance P (IC50). Certain values may represent the average of more than one experiment.

The target in assay [2] is T2, human NK-2 receptor (Homo sapiens, UniProt P21452).
T2 construct: expressed in transfected cells; host or cells: CHO-hNK-2R cells (CHO-derived)
T2 sequence (P21452 1-398): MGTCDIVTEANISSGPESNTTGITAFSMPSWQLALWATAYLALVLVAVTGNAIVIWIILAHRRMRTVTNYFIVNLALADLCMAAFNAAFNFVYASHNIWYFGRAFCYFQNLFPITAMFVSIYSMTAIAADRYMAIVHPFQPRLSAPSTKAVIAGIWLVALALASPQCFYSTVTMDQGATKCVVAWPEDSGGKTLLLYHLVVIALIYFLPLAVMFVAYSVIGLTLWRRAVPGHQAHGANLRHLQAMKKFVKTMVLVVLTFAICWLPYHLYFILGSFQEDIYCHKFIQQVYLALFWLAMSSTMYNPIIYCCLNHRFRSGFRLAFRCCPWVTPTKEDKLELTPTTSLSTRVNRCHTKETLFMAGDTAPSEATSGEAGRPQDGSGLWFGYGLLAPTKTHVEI
The experiment in a line: NK-2 Receptor Binding Assay ([125I]iodohistidyl-neurokinin A, CHO-hNK-2R cell membranes). Particulars: CHO-hNK-2R membranes, 20 pM [125I]iodohistidyl-neurokinin A; for IC50: 1 hr room temperature, read-out: IC50, inhibition of binding of neurokinin A. As to the method: as §1
NK-2 Receptor Binding Assay
The CHO-hNK-2R cells, a CHO-derived cell line transformed with the human NK-2 receptor, expressing about 400,000 such receptors per cell, were grown in 75 cm^2 flasks or roller bottles in minimal essential medium (alpha modification) with 10% fetal bovine serum. The gene sequence of the human NK-2 receptor is given in N. P. Gerard, et al., Journal of Biological Chemistry, 65:20455-20462 (1990).
For preparation of membranes, 30 confluent roller bottle cultures were dissociated by washing each roller bottle with 10 ml of Dulbecco's phosphate buffered saline (PBS) without calcium and magnesium, followed by addition of 10 ml of enzyme-free cell dissociation solution (PBS-based, from Specialty Media, Inc.). After an additional 15 minutes, the dissociated cells were pooled and centrifuged at 1,000 RPM for 10 minutes in a clinical centrifuge. Membranes were prepared by homogenization of the cell pellets in 300 ml 50 mM Tris buffer, pH 7.4 with a Tekmar® homogenizer for 10-15 seconds, followed by centrifugation at 12,000 RPM (20,000×g) for 30 minutes using a Beckman JA-14® rotor. The pellets were washed once using the above procedure. and the final pellets were resuspended in 100-120 ml 50 mM Tris buffer, pH 7.4, and 4 ml aliquots stored frozen at -70° C. The protein concentration of this preparation was 2 mg/ml.
For the receptor binding assay, one 4-ml aliquot of the CHO-hNK-2R membrane preparation was suspended in 40 ml of assay buffer containing 50 mM Tris, pH 7.4, 3 mM manganese chloride, 0.02% bovine serum albumin (BSA) and 4 μg/ml chymostatin. A 200 μl volume of the homogenate (40 μg protein) was used per sample. The radioactive ligand was [^125 I]iodohistidyl-neurokinin A (New England Nuclear, NEX-252), 2200 Ci/mmol. […] Non-specific binding was determined using 1 μM eledoisin. […]
All samples and standards were added to the incubation in 10 μl dimethylsulfoxide (DMSO) for screening (single dose) or in 5μl DMSO for IC50 determinations. […] The filter was washed 3 times with approximately 3 ml of cold 50 mM Tris buffer, pH 7.7, The filter circles were then punched into 12×75 mn polystyrene tubes and counted in a gamma counter. […]

T1 sequence (P25103 whole entry): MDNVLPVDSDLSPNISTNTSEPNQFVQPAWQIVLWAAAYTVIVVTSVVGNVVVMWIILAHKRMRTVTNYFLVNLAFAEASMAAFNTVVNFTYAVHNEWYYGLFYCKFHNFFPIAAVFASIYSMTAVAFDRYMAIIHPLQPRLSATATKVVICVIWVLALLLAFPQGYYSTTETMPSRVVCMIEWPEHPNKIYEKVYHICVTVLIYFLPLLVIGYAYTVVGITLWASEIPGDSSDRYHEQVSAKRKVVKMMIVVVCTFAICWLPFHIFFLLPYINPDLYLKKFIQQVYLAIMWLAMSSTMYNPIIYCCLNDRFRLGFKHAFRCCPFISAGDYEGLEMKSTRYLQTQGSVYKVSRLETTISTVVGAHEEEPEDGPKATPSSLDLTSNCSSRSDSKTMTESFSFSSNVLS

As usually defined, the IC50 is the point on the concentration scale where inhibition reaches its midpoint. Consider `COc1ccccc1CN1CC(c2ccccc2)N=C1C` (centres unmarked) [Example 1, 1-(2-methoxybenzyl)-2-methyl-4-phenyl-2-imidazoline], for which the values for the half-inhibitory concentration (IC50) in assay [1] and in assay [2] were 180 nM and 16 µM, respectively.

By inhibition is commonly meant the share of the control response that was lost under treatment. Take `COc1ccccc1CN1CC(Cc2ccccc2)N=C1C` (centres unmarked) [Example 4, 1-(2-methoxybenzyl)-2-methyl-4-benzyl-2-imidazoline]: the IC50 in assay [1] turned out to be 140 nM. Besides, in assay [2] (at 10 μM, read-out: percent inhibition of neurokinin A binding), the inhibition at 10 µM was found to be 21%.

As to `COc1ccccc1CN1CC(C)(Cc2c[nH]c3ccccc23)N=C1C` (centres unmarked) [Example 3, 1-(2-methoxybenzyl)-2,4-dimethyl-4-(1H-indol-3-ylmethyl)-2-imidazoline], the values for the IC50 in assay [1] and in assay [2] were 560 nM and 9.1 µM, respectively.

As to `COc1ccccc1CN1CC(Cc2c[nH]c3ccccc23)N=C1CN1CCN(c2ccccc2)CC1` (centres unmarked) [Example 2, 1-(2-methoxybenzyl)-2-[(4-phenyl-1-piperazinyl)methyl]-4-(1H-indol-3-ylmethyl)-2-imidazoline], the figures for the IC50 in assay [1] and in assay [2] were 120 nM and 0.47 µM, respectively.
